Series [1] in a line: Lipophilicity determination by HPLC (capacity factor k, distribution coefficients DpH). In kind it is physicochemical. From the text:
An HPLC system Agilent 1200 equipped with a DAD detector (Agilent, Santa Clara, CA, USA) was used. A chromatographic column Symmetry® C18 5 μm, 4.6×250 mm, part No. WAT054275 (Waters Corp., Milford, MA, USA) was used. The HPLC separation process was monitored and evaluated with EZChrom Elite software ver. 3.3.2 [53] (Agilent). Isocratic elution by a mixture of MeOH p.a. (72 %) and H2O-HPLC Mili-Q grade (28 %) as a mobile phase was used for the determination of capacity factor k. Isocratic elution by a mixture of MeOH p.a. (72 %) and acetate-buffered saline (pH 7.4 and pH 6.5) (28 %) as a mobile phase was used for the determination of distribution coefficients expressed as D7.4 and D6.5. The total flow of the column was 1.0 mL/min, the injection volume was 20 μL, the column temperature was 40 °C, and the sample temperature was 10 °C. The detection wavelength of 210 nm was chosen. A KI methanolic solution was used for the determination of the dead times (tD). Retention times (tR) were measured in minutes. The capacity factors k were calculated according to the formula k = (tR−tD)/tD, where tR is the retention time of the solute, and tD is the dead time obtained using an unretained analyte. The distribution coefficients DpH were calculated according to the formula DpH = (tR−tD)/tD. Each experiment was repeated three times.

The next series relates to S. aureus ATCC 29213. Nature of the series: Antistaphylococcal screening, microtitration broth MIC. The following applies: Staphylococcus aureus, ATCC29213; S. aureus ATCC 29213, 24 h, 37 °C. In kind it is cell-based, Staphylococcus aureus. On the procedure:
(§1) In vitro antistaphylococcal activity of the synthesized compounds was evaluated against three clinical isolates of methicillin-resistant S. aureus: clinical isolate of animal origin, MRSA 63718 (Department of Infectious Diseases and Microbiology, Faculty of Veterinary Medicine, University of Veterinary Sciences Brno, Czech Republic), carrying the mecA gene; and MRSA SA 630 and MRSA SA 3202 [54] (National Institute of Public Health, Prague, Czech Republic), both of human origin. […] All isolates were tested for the presence of the mecA gene encoding methicillin resistance. […] Vancomycin-susceptible methicillin-susceptible S. aureus (VS-MSSA) ATCC 29213, obtained from the American Type Culture Collection, was used as the reference and quality control strain. The minimum inhibitory concentrations (MICs) were evaluated by the microtitration broth method according to the CLSI [58, 59] with some modifications. The compounds were dissolved in DMSO (Sigma, St. Louis, MO, USA) to get a concentration […] and diluted in a microtitration plate in a medium Cation Adjusted Mueller-Hinton (CaMH, Oxoid, Basingstoke, UK) to reach the final concentration of 256-0.0625 μg/mL. The plate was inoculated by the tested microorganisms. The final concentration of bacterial cells was 10^5 for bacteria. […] A drug-free control and a sterility control were included. The plates were incubated for 24 h at 37 °C. […] The experiments were repeated three times.

Another series deals with MRSA 63718. Described as above. In kind it is cell-based, methicillin-resistant S. aureus. The following applies: Staphylococcus aureus; MRSA 63718, 24 h, 37 °C. Here is the method: as §1
For another series, the system named is MRSA SA 3202. The series is described as above. In kind it is cell-based, methicillin-resistant S. aureus. The note with it: Staphylococcus aureus; MRSA SA 3202, 24 h, 37 °C. On the procedure:
as §1

In the next series the test system is MRSA SA 630. The description is as above. It is filed as cell-based, methicillin-resistant S. aureus. The note with it: Staphylococcus aureus; MRSA SA 630, 24 h, 37 °C. On the procedure:
as §1

The subject of series [2] is Human monocytic leukemia THP-1 cells. On the set-up: method as in PMID 24075143. The following applies: tested up to 20 μM, ref [29], read-out: LC50 THP-1; cited from earlier work.

Results on one molecule are retold here after publication PMC12043106, “Insight into antistaphylococcal effect of chlorinated 1-hydroxynaphthalene-2-carboxanilides” (ADMET & DMPK, 2025).

Each structure is given as a SMILES string. ≈ marks a conversion by molar mass, not a printed value. A value given as a limit tells only on which side of the number the result lay.

What is called MIC is the least concentration at which growth counts as inhibited. `O=C(Nc1ccccc1)c1ccc2ccccc2c1O` [Compound 1] showed a log k in series [1] (MeOH 72 % / H2O 28 %, C18) of 0.6084. In addition, the “log D6.5” value in series [1] (MeOH 72 % / acetate-buffered saline pH 6.5 28 %) is recorded as 0.5139. Further, the “log D7.4” value in series [1] (MeOH 72 % / acetate-buffered saline pH 7.4 28 %) worked out at 0.5487. Further, the MIC against S. aureus ATCC 29213 was > 972 µM; in the series on MRSA 63718 it was > 972 µM; against MRSA SA 3202, 121 µM (≈ 31.9 µg/mL); against MRSA SA 630, 243 µM (≈ 64 µg/mL). Further, the CC50 in series [2] is > 20 µM.
